The record followed here is patent publication US8435980B2 (AbbVie Inc., priority 2009, dated 2013).

pKi: −log10 of the molar value.

The target in this assay is T1, Cdc7 (BEV coexpressed huCDC7/DBF4) (Homo sapiens, UniProt O00311).
T1 construct: made in house; host or cells: BEV (baculovirus expression vector) co-expression; insect cells are implied but no cell line is named
T1 sequence (O00311 whole entry): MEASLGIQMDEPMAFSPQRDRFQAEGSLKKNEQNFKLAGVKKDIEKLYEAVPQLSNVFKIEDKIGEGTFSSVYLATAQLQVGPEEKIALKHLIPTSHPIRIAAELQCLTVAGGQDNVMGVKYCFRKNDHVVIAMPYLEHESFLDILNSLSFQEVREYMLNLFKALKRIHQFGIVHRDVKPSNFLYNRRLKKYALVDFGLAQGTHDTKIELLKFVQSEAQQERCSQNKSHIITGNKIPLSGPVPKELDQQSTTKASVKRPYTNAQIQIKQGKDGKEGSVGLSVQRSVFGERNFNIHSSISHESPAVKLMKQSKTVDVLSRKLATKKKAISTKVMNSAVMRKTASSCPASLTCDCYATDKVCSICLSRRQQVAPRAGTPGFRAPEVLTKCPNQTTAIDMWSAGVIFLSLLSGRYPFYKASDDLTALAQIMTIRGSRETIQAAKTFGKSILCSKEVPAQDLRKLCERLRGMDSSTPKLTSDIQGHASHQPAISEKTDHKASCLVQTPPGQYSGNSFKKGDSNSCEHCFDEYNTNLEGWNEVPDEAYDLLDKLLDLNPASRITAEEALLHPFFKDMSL
T1 sequence (Q9UBU7 whole entry partner): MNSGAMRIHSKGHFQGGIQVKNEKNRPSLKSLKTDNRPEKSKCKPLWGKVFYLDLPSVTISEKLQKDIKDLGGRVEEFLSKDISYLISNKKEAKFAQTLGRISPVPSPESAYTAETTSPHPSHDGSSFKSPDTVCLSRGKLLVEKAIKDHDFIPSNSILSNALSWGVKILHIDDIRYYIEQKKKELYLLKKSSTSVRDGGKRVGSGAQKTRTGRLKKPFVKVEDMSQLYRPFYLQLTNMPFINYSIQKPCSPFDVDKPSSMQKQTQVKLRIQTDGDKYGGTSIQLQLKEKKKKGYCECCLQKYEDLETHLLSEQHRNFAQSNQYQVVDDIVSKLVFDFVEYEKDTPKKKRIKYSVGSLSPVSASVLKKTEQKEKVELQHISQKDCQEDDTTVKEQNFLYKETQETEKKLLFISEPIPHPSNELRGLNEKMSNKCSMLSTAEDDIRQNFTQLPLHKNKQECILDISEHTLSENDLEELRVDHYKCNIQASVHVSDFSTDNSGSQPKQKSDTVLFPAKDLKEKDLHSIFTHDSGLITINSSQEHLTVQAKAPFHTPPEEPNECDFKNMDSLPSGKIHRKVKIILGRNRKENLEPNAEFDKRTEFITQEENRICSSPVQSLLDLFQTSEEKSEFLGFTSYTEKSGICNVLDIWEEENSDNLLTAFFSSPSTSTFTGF
The experiment in a line: Cdc7 enzyme inhibition assay ([33P]ATP, biotinylated peptide substrate, FlashPlate). In kind it is biochemical. To be noted: Table 3; enzyme inhibition data (Ki). As for the experimental part:
Cdc7 (BEV coexpressed huCDC7/DBF4) is prepared internally. Cdc7 assays are conducted as follows with final concentrations as listed. […] Reactions are quenched after 1 hr by the addition of 90 μL stop buffer (50 mM EDTA, 2M NaCl). […] (Ki) for exemplary compounds.
Regarding `O=C1C[C@@H](C(=O)N[C@H]2CC[C@H](Nc3cc(-c4c[nH]c5ncccc45)cc(Cl)n3)CC2)N1` [Example 115, (2S)—N-(trans-4-{[6-chloro-4-(1H-pyrrolo[2,3-b]pyridin-3-yl)pyridin-2-yl]-amino}cyclohexyl)-4-oxo azetidine-2-carboxamide], the pKi is greater than 8.00.
Next, `CN[C@@H](C)C(=O)N[C@H]1CC[C@H](Nc2cc(-c3c[nH]c4ncccc34)cc(Cl)n2)CC1` [Example 116, N-(trans-4-{[6-chloro-4-(1H-pyrrolo[2,3-b]pyridin-3-yl)pyridin-2-yl]amino}cyclohexyl)-N^2-methyl-L-alaninamide]: greater than 8.00; `O=C(C1CCN1)N1CCC(Nc2cc(-c3c[nH]c4ncccc34)cc(Cl)n2)CC1` (stereo not drawn) [Example 117, Azetidin-2-yl(4-{[6-chloro-4-(1H-pyrrolo[2,3-b]pyridin-3-yl)pyridin-2-yl]amino}piperidin-1-yl)methanone]: greater than 8.00; `CN(C)CC(=O)NC1CCCC(Nc2cc(-c3c[nH]c4ncccc34)cc(Cl)n2)C1` (stereo not drawn) [Example 118, N-(3-{[6-chloro-4-(1H-pyrrolo[2,3-b]pyridin-3-yl)pyridin-2-yl]amino}cyclohexyl)-N^2,N^2-dimethylglycinamide]: greater than 8.00.
As to `CN1CCC[C@H]1C(=O)NC1CCCC(Nc2cc(-c3c[nH]c4ncccc34)cc(Cl)n2)C1` (stereo partly drawn) [Example 119, N-(3-{[6-chloro-4-(1H-pyrrolo[2,3-b]pyridin-3-yl)pyridin-2-yl]amino}cyclohexyl)-1-methyl-L-prolinamide], the pKi was greater than 8.00.
In turn, `CN(C)CC(C)(C)CNc1cc(-c2c[nH]c3ncccc23)cc(Cl)n1` [Example 121, N′-[6-chloro-4-(1H-pyrrolo[2,3-b]pyridin-3-yl)pyridin-2-yl]-N,N,2,2-tetramethylpropane-1,3-diamine] showed a pKi greater than 8.00.
`CS(=O)(=O)Nc1cc(-c2c[nH]c3ncccc23)cc(Cl)n1` [Example 122, N-[6-chloro-4-(1H-pyrrolo[2,3-b]pyridin-3-yl)pyridin-2-yl]methanesulfonamide] gave a pKi greater than 8.00.
In turn, `O=S(=O)(Nc1cc(-c2c[nH]c3ncccc23)cc(Cl)n1)c1ccccc1` [Example 123, N-[6-chloro-4-(1H-pyrrolo[2,3-b]pyridin-3-yl)pyridin-2-yl]benzenesulfonamide] gave a negative logarithm of the Ki (pKi) greater than 8.00.
Next, `CC(C)(CNC(=O)C1CC1)CNc1cc(-c2c[nH]c3ncccc23)cc(Cl)n1` [Example 124, N-(3-{[6-chloro-4-(1H-pyrrolo[2,3-b]pyridin-3-yl)pyridin-2-yl]amino}-2,2-dimethylpropyl)cyclopropanecarboxamide]: greater than 8.00; `O=C(C1CC1)N1CCC(Nc2cc(-c3c[nH]c4ncccc34)cc(Cl)n2)CC1` [Example 126, (4-{[6-chloro-4-(1H-pyrrolo[2,3-b]pyridin-3-yl)pyridin-2-yl]amino}piperidin-1-yl)(cyclopropyl)methanone]: greater than 8.00.
`C[C@@H](C(=O)N[C@H]1CC[C@H](Nc2cc(-c3c[nH]c4ncccc34)cc(Cl)n2)CC1)N(C)C` [Example 127, N-(trans-4-{[6-chloro-4-(1H-pyrrolo[2,3-b]pyridin-3-yl)pyridin-2-yl]amino}cyclohexyl)-N^2,N^2-dimethyl-L-alaninamide] gave a pKi greater than 8.00.
With `Clc1cc(-c2c[nH]c3ncccc23)cc(NC2CCN(C3CCC3)CC2)n1` [Example 128, 6-chloro-N-(1-cyclobutylpiperidin-4-yl)-4-(1H-pyrrolo[2,3-b]pyridin-3-yl)pyridin-2-amine], the pKi was greater than 8.00.
For `O=C(NC1CCCC(Nc2cc(-c3c[nH]c4ncccc34)cc(Cl)n2)C1)C1CCCCN1` (stereo not drawn) [Example 129, N-(3-{[6-chloro-4-(1H-pyrrolo[2,3-b]pyridin-3-yl)pyridin-2-yl]amino}cyclohexyl)piperidine-2-carboxamide], the pKi is greater than 8.00.
Next, `O=C(CN1CCCC1)NC1CCCC(Nc2cc(-c3c[nH]c4ncccc34)cc(Cl)n2)C1` (stereo not drawn) [Example 130, N-(3-{[6-chloro-4-(1H-pyrrolo[2,3-b]pyridin-3-yl)pyridin-2-yl]amino}cyclohexyl)-2-(pyrrolidin-1-yl)acetamide]: greater than 8.00; `O=C(N[C@H]1CC[C@H](Nc2cc(-c3c[nH]c4ncccc34)cc(Cl)n2)CC1)C1CCC1` [Example 133, N-(trans-4-{[6-chloro-4-(1H-pyrrolo[2,3-b]pyridin-3-yl)pyridin-2-yl]amino}cyclohexyl)cyclobutanecarboxamide]: greater than 8.00.
Next, `NC1(C(=O)NC2CCCC(Nc3cc(-c4c[nH]c5ncccc45)cc(Cl)n3)C2)CCC1` (stereo not drawn) [Example 135, 1-amino-N-(3-{[6-chloro-4-(1H-pyrrolo[2,3-b]pyridin-3-yl)pyridin-2-yl]amino}cyclohexyl)cyclobutanecarboxamide]: greater than 8.00; `O=C(CNC1CCCC1)N[C@H]1CC[C@H](Nc2cc(-c3c[nH]c4ncccc34)cc(Cl)n2)CC1` [Example 137, N-(trans-4-{[6-chloro-4-(1H-pyrrolo[2,3-b]pyridin-3-yl)pyridin-2-yl]amino}cyclohexyl)-N^2-cyclopentylglycinamide]: greater than 8.00.
Next, `CS(=O)(=O)N1CCCC(Nc2cc(-c3c[nH]c4ncccc34)cc(Cl)n2)C1` (stereo not drawn) [Example 138, 6-chloro-N-[1-(methylsulfonyl)piperidin-3-yl]-4-(1H-pyrrolo[2,3-b]pyridin-3-yl)pyridin-2-amine]: greater than 8.00; `O=C1CC[C@@H](C(=O)NC2CCCC(Nc3cc(-c4c[nH]c5ncccc45)cc(Cl)n3)C2)N1` (stereo partly drawn) [Example 139, N-(3-{[6-chloro-4-(1H-pyrrolo[2,3-b]pyridin-3-yl)pyridin-2-yl]amino}cyclohexyl)-5-oxoprolinamide]: greater than 8.00; `O=C(CN1CCOCC1)N[C@H]1CC[C@H](Nc2cc(-c3c[nH]c4ncccc34)cc(Cl)n2)CC1` [Example 141, N-(trans-4-{[6-chloro-4-(1H-pyrrolo[2,3-b]pyridin-3-yl)pyridin-2-yl]amino}cyclohexyl)-2-(morpholin-4-yl)acetamide]: greater than 8.00.
As to `O=C(CN1CCN(c2ccccn2)CC1)N[C@H]1CC[C@H](Nc2cc(-c3c[nH]c4ncccc34)cc(Cl)n2)CC1` [Example 142, N-(trans-4-{[6-chloro-4-(1H-pyrrolo[2,3-b]pyridin-3-yl)pyridin-2-yl]amino}cyclohexyl)-2-[4-(pyridin-2-yl)piperazin-1-yl]acetamide], the pKi is greater than 8.00.
The compound `NC1CCC(CC2CCC(Nc3cc(-c4c[nH]c5ncccc45)cc(Cl)n3)CC2)CC1` (stereo not drawn) [Example 143, N-{4-[(4-aminocyclohexyl)methyl]cyclohexyl}-6-chloro-4-(1H-pyrrolo[2,3-b]pyridin-3-yl)pyridin-2-amine] gave a pKi greater than 8.00.
Next, `O=C1CC(C(=O)N[C@H]2CC[C@H](Nc3cc(-c4c[nH]c5ncccc45)cc(Cl)n3)CC2)CC(=O)N1` [Example 144, N-(trans-4-{[6-chloro-4-(1H-pyrrolo[2,3-b]pyridin-3-yl)pyridin-2-yl]amino}cyclohexyl)-2,6-dioxopiperidine-4-carboxamide]: greater than 8.00; `NCCS(=O)(=O)NC1CCCC(Nc2cc(-c3c[nH]c4ncccc34)cc(Cl)n2)C1` (stereo not drawn) [Example 145, 2-amino-N-(3-{[6-chloro-4-(1H-pyrrolo[2,3-b]pyridin-3-yl)pyridin-2-yl]amino}cyclohexyl)ethanesulfonamide]: greater than 8.00.
